# Reference: ChEMBL document CHEMBL2029313, “Design, synthesis and biological evaluation of potent NAD+-dependent DNA ligase inhibitors as potential antibacterial agents. Part I: aminoalkoxypyrimidine carboxamides” (Bioorg Med Chem Lett, 2012)
# Experiments:
# [1] = tested on: Staphylococcus aureus; experiment: Antibacterial activity against Staphylococcus aureus ATCC 29213; assay type: functional
# [2] = target: DNA ligase 1 (Homo sapiens, UniProt P18858); experiment: Inhibition of human ATP-dependent DNA ligase 1
# Chain of DNA ligase 1 (P18858 whole entry): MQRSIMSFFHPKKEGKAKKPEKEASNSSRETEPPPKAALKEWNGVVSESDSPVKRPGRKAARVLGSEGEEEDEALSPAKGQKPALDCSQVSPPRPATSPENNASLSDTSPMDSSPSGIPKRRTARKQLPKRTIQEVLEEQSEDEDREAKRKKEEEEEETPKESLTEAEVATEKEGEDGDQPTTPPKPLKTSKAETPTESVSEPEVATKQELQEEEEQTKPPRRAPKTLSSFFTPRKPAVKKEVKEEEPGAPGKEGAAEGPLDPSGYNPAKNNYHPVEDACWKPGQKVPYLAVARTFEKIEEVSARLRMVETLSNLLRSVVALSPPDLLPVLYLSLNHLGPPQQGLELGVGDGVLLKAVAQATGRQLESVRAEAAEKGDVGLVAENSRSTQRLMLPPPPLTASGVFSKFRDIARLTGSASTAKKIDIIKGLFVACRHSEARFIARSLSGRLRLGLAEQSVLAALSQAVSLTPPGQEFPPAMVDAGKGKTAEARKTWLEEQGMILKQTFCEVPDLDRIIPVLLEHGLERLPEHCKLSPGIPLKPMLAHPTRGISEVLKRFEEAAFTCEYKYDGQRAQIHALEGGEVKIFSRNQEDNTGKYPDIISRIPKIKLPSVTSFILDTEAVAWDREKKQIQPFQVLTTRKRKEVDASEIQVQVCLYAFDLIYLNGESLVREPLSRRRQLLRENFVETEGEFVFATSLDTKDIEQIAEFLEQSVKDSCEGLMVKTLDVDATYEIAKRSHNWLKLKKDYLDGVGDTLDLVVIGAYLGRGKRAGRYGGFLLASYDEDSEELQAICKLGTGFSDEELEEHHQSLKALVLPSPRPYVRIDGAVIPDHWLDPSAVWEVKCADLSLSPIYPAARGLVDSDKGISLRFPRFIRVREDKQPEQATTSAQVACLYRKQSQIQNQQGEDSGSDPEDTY
# [3] = tested on: Escherichia coli; experiment: Antibacterial activity against TolC-positive Escherichia coli 1201 expressing lig251 gene; assay type: functional
# [4] = Inhibition of Escherichia coli NAD+-dependent DNA ligase
# [5] = tested on: Escherichia coli; experiment: Antibacterial activity against efflux-deficient Escherichia coli 1260 expressing transducant lig251 gene encoding temperature sensitive ligA; assay type: functional
# [6] = tested on: Escherichia coli; experiment: Antibacterial activity against wild-type TolC-positive Escherichia coli 1410 expressing ligA gene; assay type: functional
# [7] = tested on: Streptococcus pneumoniae; experiment: Antibacterial activity against Streptococcus pneumoniae ATCC 10015; assay type: functional
# [8] = tested on: Haemophilus influenzae; experiment: Antibacterial activity against Haemophilus influenzae ATCC 51907; assay type: functional
SMILES,MIC [1],IC50 [2],MIC [3],IC50 [4],MIC [5],MIC [6],MIC [7],MIC [8]
CC(C)Oc1ncc(C(N)=O)c(N)n1,> 100 µM,> 55000 nM,27 µM,410 nM,15 µM,> 100 µM,–,–
CC(C)Oc1nc(N)c(C(N)=O)c(O[C@H]2CCC[C@@H]2O)n1,> 100 µM,> 55000 nM,> 100 µM,630 nM,4.7 µM,> 100 µM,–,–
NC(=O)c1cnc(SC2CCCC2)nc1N,> 100 µM,–,> 100 µM,6900 nM,33 µM,> 100 µM,–,–
NC(=O)c1c(N)nc(OC2CCCC2)nc1Oc1ccccc1F,> 100 µM,> 55000 nM,> 100 µM,64 nM,9.4 µM,> 100 µM,–,–
NC(=O)c1c(N)nc(OC2CCCC2)nc1Oc1cccc(CCC(=O)O)c1,83 µM,> 55000 nM,> 100 µM,78 nM,1.2 µM,> 100 µM,–,–
NC(=O)c1cnc(OCCF)nc1N,> 100 µM,> 55000 nM,23 µM,920 nM,28 µM,> 100 µM,–,–
C[C@H]1CCCC[C@H]1Oc1ncc(C(N)=O)c(N)n1,> 100 µM,> 55000 nM,> 100 µM,240 nM,3.1 µM,> 100 µM,–,–
NC(=O)c1cnc(CCC2CCCC2)nc1N,> 100 µM,–,> 100 µM,> 55000 nM,> 100 µM,> 100 µM,–,–
Nc1nc(OC2CCCC2)ncc1S(N)(=O)=O,> 100 µM,–,> 100 µM,> 40000 nM,> 100 µM,> 100 µM,–,–
NC(=O)c1cnc(OC2CCCC2)nc1N,> 100 µM,> 55000 nM,100 µM,610 nM,9.4 µM,> 100 µM,–,–
NC(=O)c1c(N)nc(OC2CCCC2)nc1OC1CCCCC1F (stereo not drawn),> 100 µM,> 55000 nM,> 100 µM,19 nM,1.2 µM,> 100 µM,–,–
N=C(N)c1cnc(OC2CCCC2)nc1N,> 100 µM,–,> 100 µM,8100 nM,100 µM,> 100 µM,–,–
COCCNc1nc(OCC2CCCC2)ncc1C(N)=O,> 100 µM,–,> 100 µM,> 55000 nM,> 100 µM,> 100 µM,–,–
Nc1nc(OCC2CCCC2)ncc1C(=O)NCC1CCCO1 (stereo not drawn),> 100 µM,–,> 100 µM,> 55000 nM,> 100 µM,> 100 µM,–,–
Nc1nc(OCC2CCCC2)ncc1C(=O)NCCCN1CCCC1=O,> 100 µM,–,> 100 µM,> 55000 nM,> 100 µM,> 100 µM,–,–
NC(=O)c1cnc(OC2CCCCC2)nc1N,> 100 µM,> 55000 nM,> 100 µM,560 nM,9.8 µM,> 100 µM,–,–
NC(=O)c1c(N)nc(OC2CCCC2)nc1O[C@H]1CCCC[C@@H]1O,45 µM,> 55000 nM,> 100 µM,46 nM,1.6 µM,> 100 µM,–,–
CC(Oc1ncc(C(N)=O)c(N)n1)C(=O)O (stereo not drawn),> 100 µM,> 55000 nM,> 100 µM,> 10000 nM,> 100 µM,> 100 µM,–,–
NC(=O)c1c(N)nc(OC2CCCC2)nc1O[C@H]1CCCC[C@@H]1CO,100 µM,> 55000 nM,> 100 µM,14 nM,1.2 µM,> 100 µM,–,–
NC(=O)c1cnc(NC2CCCC2)nc1N,> 100 µM,–,> 100 µM,> 55000 nM,> 100 µM,> 100 µM,–,–
COc1cc(NC[C@H]2CCCC(Oc3nc(OC4CCCC4)nc(N)c3C(N)=O)C2)cc(OC)c1 (stereo partly drawn),> 100 µM,> 55000 nM,> 100 µM,80 nM,1.6 µM,> 100 µM,–,–
CNc1nc(OCC2CCCC2)ncc1C(N)=O,> 100 µM,–,> 100 µM,> 55000 nM,> 100 µM,> 100 µM,–,–
NC(=O)c1c(N)nc(OC2CCCC2)nc1O[C@H]1CCC[C@H]1O,> 100 µM,> 55000 nM,> 100 µM,120 nM,9.4 µM,> 100 µM,–,–
C[C@H]1CC[C@H](Oc2nc(N)c(C(N)=O)c(O[C@H]3CCC[C@@H]3O)n2)CC1,100 µM,> 55000 nM,> 100 µM,180 nM,1.2 µM,> 100 µM,75 µM,12.5 µM
CC(C)Oc1nc(N)c(C(N)=O)c(OC2CCCCC2)n1,> 100 µM,> 55000 nM,> 100 µM,61 nM,6.3 µM,> 100 µM,–,–
